The subject of test [1] is partially purified peroxidase. Description: Oxidation of lignin substructure model compounds by partially purified peroxidase. Format: biochemical, Streptomyces viridosporus T7A. To be noted: 0.02% (wt/vol) model compound, hydrogen peroxide, pH 5.5, 37° C., 18 hours. The protocol:
The model compounds were added to reaction mixtures at a final concentration of 0.02% (wt/vol). Reactions were carried out in a total volume of 3.0 ml, containing 0.1 mM hydrogen peroxide or a peroxide generating system consisting of 0.02 units/ml of glucose oxidase (Sigma) and 3 mM glucose 0.1M sodium tartrate buffer (pH 5.5) and 300 μl of enzyme preparation. Control reactions were performed with boiled enzyme preparation. Some reaction mixtures were flushed with oxygen and all were incubated at 37° C. for 18 hours on a shaker in slanting tubes. The reaction mixtures were then acidified to pH 2-3 with 12M HCl and extracted once with ether and once with ethyl acetate. […]
HPLC was performed on a Hewlett-Packard 1090A high pressure liquid chromatograph employing a HP-1040A diode array detector. During each run, chromatograms for 258, 280, and 310 nm were recorded and the ultraviolet (UV) absorbance spectrum (250-350 nm) of each peak was recorded at its front side, apex, and trailing side. […]
Only veratraldehyde, anisaldehyde and vanillin were detected by HPLC, GC, and GC/MS. Guaiacol, formed in trace amounds, was detected by HPLC, GC, and GC/MS. Small amounts of products (IV) and (V) were detected only by MS fragmentation. […]

Test [2] deals with Peroxidase P3.
Protocol: Peroxidase activity was routinely assayed with 2,4-dichlorophenol (2,4-DCP) (Sigma) as substrate. A final volume of 1.0 ml of reaction mixture contained 100 mM sodium succinate buffer (pH 5.5), 82 mM 4-aminoantipyrine(Sigma), 1.0 mM 2,4-dichlorophenol, 4.0 mM hydrogen peroxide and 100 μl of enzyme preparation. The reaction was initiated by the addition of hydrogen peroxide and the increase in A510 was monitored for one minute at 37° C. One unit of enzyme was expressed as the amount of enzyme required for an increase of 1.0 absorbance unit per min.
Test [3] deals with Peroxidase P3. To be noted: inhibitor at final concentration lmM.
Protocol: Enzyme activity was also assayed using L-3,4-dihydroxyphenylalanine (L-DOPA; Sigma) as substrate.

Each structure is given as a SMILES string.

As to `COc1ccc(C(O)C(CO)Oc2ccccc2OC)cc1OC` (stereo not shown) [I, 1-(3,4-Dimethoxyphenyl)-2-(2-methoxyphenoxy)propane-1,3-diol], in test [1], the “Oxidation of the model compound by the peroxidase (bond cleaved)” value is given as “cleaved at the Cα -Cβ bond”.
For the compound `COc1ccc(C(=O)Cc2ccccc2)cc1` [III, 1-(4-methoxyphenyl)-2-(phenyl)ethan-1-one], the “Oxidation of the model compound by the peroxidase (bond cleaved)” value in test [1] is “cleaved between the Cαand Cβcarbons”.
`[N-]=[N+]=[N-]` [sodium azide]: the “Inhibition of the enzyme (2,4-DCP and L-DOPA oxidizing activities), in words” value in the test with Peroxidase P3 [2] (1 mM concentration) was “inhibited”. In addition, in the test on Peroxidase P3 [2] (inhibitor at final concentration lmM), the “% inhibition of peroxidase P3 activity, substrate 2,4,-DCP” value came to 83%. Moreover, in the test on Peroxidase P3 [2] (inhibitor at final concentration lmM, partially purified P3), the “Specific activity, substrate 2,4,-DCP, with inhibitor” value was 0.18 Units/mg protein. The “% inhibition of peroxidase P3 activity, substrate L-DOPA” value with Peroxidase P3 [3] came out at 41%. Moreover, the “Specific activity, substrate L-DOPA, with inhibitor” value in the test with Peroxidase P3 [3] (partially purified P3) stood at 0.18 Units/mg protein.

The values are drawn from US5200338A, “Bacterial extracellular lignin peroxidase” (Idaho Research Foundation, Incorporation, priority 1988, dated 1993).
